Converted amounts (≈) assume the structure as drawn.
Key:
Format in all cases: cell-based
[1] = LDH cytotoxic activity assay, MCF7; conditions: human, MCF7 cells; for cytotoxicity at 24 h, 25 μg/mL: MCF7, 25 μg/mL; for cytotoxicity at 24 h, 50 μg/mL: MCF7, 50 μg/mL; for cytotoxicity at 24 h, 75 μg/mL: MCF7, 75 μg/mL
Experimental: (§1) The cell lines were cultured in a cell medium (Dulbecco’s modified eagle’s or RPMI 1640) enriched with 10% (v/v) fetal bovine serum and 2% (v/v) Penicillin-Streptomycin (10,000 U/mL). First, old medium was removed out of the flask when the cells reached approximately 80% confluence. Next, cells were taken from the flasks surface using trypsin-EDTA solution and then subjected to centrifugation. Following, the cell pellet was suspended with fresh media and was inoculated into wells.
(§2) Approximately 5 × 10^3 cells in 100 μL were placed into 96-well plates as triplicates and treated with 25, 50, 75, and 100 μg/mL concentrations of test compounds at 37 °C with 5% CO2 for 24 h. LDH activity was obtained by determining absorbance at 492–630 nm using a microplate reader.

[2] = LDH cytotoxic activity assay, Hep3B; conditions: human, Hep3B cells
Experimental: as §1, §2

[3] = LDH cytotoxic activity assay, C6; conditions: rat, C6 glioma cells; for cytotoxicity at 24 h, 25 μg/mL: C6, 25 μg/mL; for cytotoxicity at 24 h, 50 μg/mL: C6, 50 μg/mL; for cytotoxicity at 24 h, 75 μg/mL: C6, 75 μg/mL; for cytotoxicity at 24 h, 100 μg/mL: C6, 100 μg/mL
How it was run: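 About 5 × 10^3 cells per well, in triplicate, exposed to 25, 50, 75 and 100 μg/mL of test compound for 24 h at 37 °C, 5% CO2. Cells grown in DMEM or RPMI 1640 with 10% FBS. LDH activity read as absorbance at 492–630 nm.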

[4] = LDH cytotoxic activity assay, A549; conditions: human, A549 cells; for cytotoxicity at 24 h, 25 μg/mL: A549, 25 μg/mL; for cytotoxicity at 24 h, 50 μg/mL: A549, 50 μg/mL; for cytotoxicity at 24 h, 75 μg/mL: A549, 75 μg/mL; for cytotoxicity at 24 h, 100 μg/mL: A549, 100 μg/mL
Experimental: as §1, §2

[5] = test system: HT29; assay: cells; conditions: Homo sapiens; for LC50 (concentration giving 50% net cell loss relative to time zero): HT-29, read-out: LC50; for GI50 / IC50 / IC (total growth inhibition): HT-29, HT29, MTT; for IC50: read-out: IC50; for IC (total growth inhibition): read-out: TGI
How it was run: (§3)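 Cells were seeded at about 1 × 10^4 per well, brought to 200 μL with medium, and assessed by MTT: 4 h with MTT reagent, formazan dissolved in DMSO with Sorenson's buffer, absorbance read at 560 nm (690 nm reference). IC50 derived from percent inhibition relative to DMSO.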

[6] = test system: MCF7; assay: cells; conditions: Homo sapiens; for LC50 (concentration causing 50% net cell loss relative to time zero): MCF7, read-out: LC50; for GI50 / IC50 / IC (total growth inhibition): MCF7, MTT; for IC50: read-out: IC50; for IC (total growth inhibition): read-out: TGI
How it was run: as §3

[7] = test system: A549; assay: cells; conditions: Homo sapiens; for LC50 (concentration causing 50% net cell loss): A549, read-out: LC50; for GI50 / IC50 / IC (total growth inhibition): A549, MTT; for IC50: read-out: IC50; for IC (total growth inhibition): read-out: TGI
How it was run: as §3

[8] = test system: HeLa; assay: cells; conditions: Homo sapiens; for GI50 / IC50 / IC (total growth inhibition): MTT; for IC50: read-out: IC50; for IC (total growth inhibition): read-out: TGI; for LC50 (concentration causing 50% net cell loss): read-out: LC50
How it was run: as §3

[9] = LDH cytotoxic activity assay, FL; conditions: human, FL cells (normal cells)
Experimental: as §1, §2

[10] = as the column head prints, head prints FL

| GI50 [5] [µg/mL] | IC50 [5] [µg/mL] | GI50 [6] [µg/mL] | IC50 [6] [µg/mL] | GI50 [7] [µg/mL] | IC50 [7] [µg/mL] | GI50 [8] [µg/mL] | IC50 [8] [µg/mL] | Structure (SMILES) | cytotoxicity at 24 h, 25 μg/mL [3] [%] | cytotoxicity at 24 h, 50 μg/mL [3] [%] | cytotoxicity at 24 h, 75 μg/mL [3] [%] | cytotoxicity at 24 h, 100 μg/mL [3] [%] | LC50 (concentration giving 50% net cell loss relative to time zero) [5] [µg/mL] | IC (total growth inhibition) [5] [µg/mL] | LC50 (concentration causing 50% net cell loss relative to time zero) [6] [µg/mL] | IC (total growth inhibition) [6] [µg/mL] | LC50 (concentration causing 50% net cell loss) [7] [µg/mL] | IC (total growth inhibition) [7] [µg/mL] | IC (total growth inhibition) [8] [µg/mL] | LC50 (concentration causing 50% net cell loss) [8] [µg/mL] | also measured |
| --- | --- | --- | --- | --- | --- | --- | --- | --- | --- | --- | --- | --- | --- | --- | --- | --- | --- | --- | --- | --- | --- |
| 4.29 (≈ 10.1 µM) | > 500 | 2.29 (≈ 5.4 µM) | > 500 | 192 (≈ 453 µM) | > 500 | > 500 | > 500 | Cc1cccc(-c2cc(-c3ccncc3)nc(N[C@@H]3O[C@H](CO)[C@@H](O)[C@H](O)[C@H]3O)n2)c1 [Compound 6, N-[4-(3-methylphenyl)-6-pyridin-4-ylpyrimidin-2-yl]-β-D-glucopyranosylamine] | 27.9 | 38.2 | 63.1 | 84.9 | > 500 | > 500 | > 500 | > 500 | > 500 | > 500 | > 500 | > 500 | cytotoxicity at 24 h, 25 μg/mL [1]: 7.22%; cytotoxicity at 24 h, 50 μg/mL [1]: 12.5%; cytotoxicity at 24 h, 75 μg/mL [1]: 31.8%; cytotoxicity at 24 h, 25 μg/mL [2]: 10%; cytotoxicity at 24 h, 50 μg/mL [2]: 15.4%; cytotoxicity at 24 h, 75 μg/mL [2]: 35.9%; cytotoxicity at 24 h, 100 μg/mL [2]: 41.1%; cytotoxicity at 24 h, 25 μg/mL [4]: 27%; cytotoxicity at 24 h, 50 μg/mL [4]: 32%; cytotoxicity at 24 h, 75 μg/mL [4]: 48.1%; cytotoxicity at 24 h, 100 μg/mL [4]: 72.8%; cytotoxicity at 24 h, 25 μg/mL ([9]; FL): 19.1%; cytotoxicity at 24 h, 50 μg/mL ([9]; FL): 27.6%; cytotoxicity at 24 h, 75 μg/mL ([9]; FL): 50.9%; cytotoxicity at 24 h, 100 μg/mL ([9]; FL): 63.4%; cytotoxicity at 24 h, 100 μg/mL [9, 10]: 41.9% |
| 4.3 (≈ 10.1 µM) | > 500 | 1.89 (≈ 4.45 µM) | > 500 | > 500 | > 500 | > 500 | > 500 | Cc1ccc(-c2cc(-c3ccncc3)nc(N[C@@H]3O[C@H](CO)[C@@H](O)[C@H](O)[C@H]3O)n2)cc1 [Compound 9, N-[4-(4-methylphenyl)-6-pyridin-4-ylpyrimidin-2-yl]-β-D-glucopyranosylamine] | 28.4 | 34.1 | 70.2 | 90.6 | > 500 | > 500 | > 500 | > 500 | > 500 | > 500 | > 500 | > 500 | cytotoxicity at 24 h, 25 μg/mL [1]: 11.1%; cytotoxicity at 24 h, 50 μg/mL [1]: 19.2%; cytotoxicity at 24 h, 75 μg/mL [1]: 27.5%; cytotoxicity at 24 h, 25 μg/mL [2]: 16.5%; cytotoxicity at 24 h, 50 μg/mL [2]: 24.4%; cytotoxicity at 24 h, 75 μg/mL [2]: 41.5%; cytotoxicity at 24 h, 100 μg/mL [2]: 49.4%; cytotoxicity at 24 h, 25 μg/mL [4]: 27.4%; cytotoxicity at 24 h, 50 μg/mL [4]: 28.5%; cytotoxicity at 24 h, 75 μg/mL [4]: 48.4%; cytotoxicity at 24 h, 100 μg/mL [4]: 63.2%; cytotoxicity at 24 h, 25 μg/mL ([9]; FL): 18.6%; cytotoxicity at 24 h, 50 μg/mL ([9]; FL): 30%; cytotoxicity at 24 h, 75 μg/mL ([9]; FL): 60.6%; cytotoxicity at 24 h, 100 μg/mL ([9]; FL): 71%; cytotoxicity at 24 h, 100 μg/mL [9, 10]: 36.5% |

Further lines, the compound ahead of its results:

| Structure (SMILES) | GI50 [5] [µg/mL] | IC50 [5] [µg/mL] | GI50 [6] [µg/mL] | IC50 [6] [µg/mL] | GI50 [7] [µg/mL] | IC50 [7] [µg/mL] | GI50 [8] [µg/mL] | IC50 [8] [µg/mL] | cytotoxicity at 24 h, 25 μg/mL [3] [%] | cytotoxicity at 24 h, 50 μg/mL [3] [%] | cytotoxicity at 24 h, 75 μg/mL [3] [%] | cytotoxicity at 24 h, 100 μg/mL [3] [%] | LC50 (concentration giving 50% net cell loss relative to time zero) [5] [µg/mL] | IC (total growth inhibition) [5] [µg/mL] | LC50 (concentration causing 50% net cell loss relative to time zero) [6] [µg/mL] | IC (total growth inhibition) [6] [µg/mL] | LC50 (concentration causing 50% net cell loss) [7] [µg/mL] | IC (total growth inhibition) [7] [µg/mL] | IC (total growth inhibition) [8] [µg/mL] | LC50 (concentration causing 50% net cell loss) [8] [µg/mL] | also measured |
| --- | --- | --- | --- | --- | --- | --- | --- | --- | --- | --- | --- | --- | --- | --- | --- | --- | --- | --- | --- | --- | --- |
| Cc1cccc(-c2cc(-c3ccccn3)nc(N[C@@H]3O[C@H](CO)[C@@H](O)[C@H](O)[C@H]3O)n2)c1 [Compound 4, N-[4-(3-methylphenyl)-6-pyridin-2-ylpyrimidin-2-yl]-β-D-glucopyranosylamine] | 4.63 (≈ 10.9 µM) | 26.7 (≈ 62.9 µM) | 3.44 (≈ 8.1 µM) | > 500 | 19.4 (≈ 45.8 µM) | > 500 | 21.9 (≈ 51.6 µM) | 52.2 (≈ 123 µM) | 22.1 | 49.3 | 68.9 | 89.2 | > 500 | 31.9 | > 500 | > 500 | > 500 | > 500 | 46 | 116 (≈ 272 µM) | cytotoxicity at 24 h, 25 μg/mL [1]: 11.6%; cytotoxicity at 24 h, 50 μg/mL [1]: 22.5%; cytotoxicity at 24 h, 75 μg/mL [1]: 30%; cytotoxicity at 24 h, 25 μg/mL [2]: 19.6%; cytotoxicity at 24 h, 50 μg/mL [2]: 28.9%; cytotoxicity at 24 h, 75 μg/mL [2]: 42%; cytotoxicity at 24 h, 100 μg/mL [2]: 64.8%; cytotoxicity at 24 h, 25 μg/mL [4]: 26%; cytotoxicity at 24 h, 50 μg/mL [4]: 33.2%; cytotoxicity at 24 h, 75 μg/mL [4]: 61.7%; cytotoxicity at 24 h, 100 μg/mL [4]: 72.5%; cytotoxicity at 24 h, 25 μg/mL ([9]; FL): 24.4%; cytotoxicity at 24 h, 50 μg/mL ([9]; FL): 32.4%; cytotoxicity at 24 h, 75 μg/mL ([9]; FL): 48.3%; cytotoxicity at 24 h, 100 μg/mL ([9]; FL): 69.5%; cytotoxicity at 24 h, 100 μg/mL [9, 10]: 40.2% |
| Cc1ccc(-c2cc(-c3ccccn3)nc(N[C@@H]3O[C@H](CO)[C@@H](O)[C@H](O)[C@H]3O)n2)cc1 [Compound 7, N-[4-(4-methylphenyl)-6-pyridin-2-ylpyrimidin-2-yl]-β-D-glucopyranosylamine] | 2.5 (≈ 5.89 µM) | 29.9 (≈ 70.5 µM) | 2.04 (≈ 4.81 µM) | > 500 | 125 (≈ 295 µM) | > 500 | 7.17 (≈ 16.9 µM) | 31.9 (≈ 75 µM) | 22 | 48.6 | 69.5 | 85.8 | > 500 | 49.2 | > 500 | > 500 | > 500 | > 500 | 21.6 | 120 (≈ 284 µM) | cytotoxicity at 24 h, 25 μg/mL [1]: 4.05%; cytotoxicity at 24 h, 50 μg/mL [1]: 20.1%; cytotoxicity at 24 h, 75 μg/mL [1]: 26.6%; cytotoxicity at 24 h, 25 μg/mL [2]: 9.37%; cytotoxicity at 24 h, 50 μg/mL [2]: 17%; cytotoxicity at 24 h, 75 μg/mL [2]: 34.3%; cytotoxicity at 24 h, 100 μg/mL [2]: 44.5%; cytotoxicity at 24 h, 25 μg/mL [4]: 24.3%; cytotoxicity at 24 h, 50 μg/mL [4]: 24.4%; cytotoxicity at 24 h, 75 μg/mL [4]: 27.4%; cytotoxicity at 24 h, 100 μg/mL [4]: 40.6%; cytotoxicity at 24 h, 25 μg/mL ([9]; FL): 18.1%; cytotoxicity at 24 h, 50 μg/mL ([9]; FL): 30.5%; cytotoxicity at 24 h, 75 μg/mL ([9]; FL): 46.5%; cytotoxicity at 24 h, 100 μg/mL ([9]; FL): 73.2%; cytotoxicity at 24 h, 100 μg/mL [9, 10]: 40.7% |
| CC(=O)OC[C@H]1O[C@@H](Nc2nc(-c3cccc(C)c3)cc(-c3ccccn3)n2)[C@H](OC(C)=O)[C@@H](OC(C)=O)[C@@H]1OC(C)=O [Compound 13, 2,3,4,6-tetra-O-acetyl-N-[4-(3-methylphenyl)-6-pyridin-2-ylpyrimidin-2-yl]-β-D-glucopyranosylamine] | 2.94 (≈ 4.96 µM) | > 500 | 1.84 (≈ 3.1 µM) | 297 (≈ 500 µM) | > 500 | > 500 | 4.48 (≈ 7.56 µM) | 60.4 (≈ 102 µM) | 15 | 51.2 | 77.1 | 98.3 | > 500 | > 500 | > 500 | 397 | > 500 | > 500 | 17.3 | 224 (≈ 378 µM) |  |
